Data from ChEMBL document CHEMBL3351745, “Synthesis and in vitro evaluation of radioiodinated indolequinones targeting NAD(P)H: quinone oxidoreductase 1 for internal radiation therapy” (Bioorg Med Chem, 2014).

Columns and labels:
[1] = Stability of the compound in cell culture media; type: physicochemical
A549 [2] = assay: Drug metabolism in human A549 cells assessed as [125I]-I formation at 18.5 kBq after 60 mins by reversed phase TLC analysis; type: ADME, cell-based; settings: a549, 1 h
[3] = target: NAD(P)H dehydrogenase [quinone] 1 (Homo sapiens, UniProt P15559); assay: Activity of NOQ-1 expressed in human HT-29 cell lysate assessed as p-[125I]-iodophenol formation at 185 KBq after 2 hrs by reversed phase TLC analysis; type: ADME, cell-free; settings: ht-29, 2 h
[4] = Stability of the compound in PBS assessed as compound remaining at 74 KBq at pH 7.4 after 24 hrs by reversed phase TLC analysis; type: physicochemical; settings: read-out: Stability
[5] = Drug metabolism in human HT-29 cells assessed as compound remaining at 18.5 kBq after 60 mins by reversed phase TLC analysis; type: ADME, cell-based; settings: read-out: Stability
[6] = Stability in mouse plasma assessed as compound remaining at 74 KBq after 24 hrs by reversed phase TLC analysis; type: ADME, cell-free; settings: read-out: Stability
A549 [7] = assay: Drug metabolism in human A549 cells assessed as p-[125I]-iodophenol formation at 18.5 kBq after 60 mins by reversed phase TLC analysis; type: ADME, cell-based; settings: a549, 1 h
HT-29 [8] = assay: Cellular uptake in human HT-29 cells at 18.5 kBq after 2 hrs by gamma-counting analysis; type: ADME, cell-based; settings: ht-29, 2 h
HT-29 [9] = assay: Drug metabolism in human HT-29 cells assessed as p-[125I]-iodophenol formation at 18.5 kBq after 60 mins by reversed phase TLC analysis; type: ADME, cell-based; settings: ht-29, 1 h
A549 [10] = assay: Cellular uptake in human A549 cells at 18.5 kBq after 1 to 120 mins by gamma-counting analysis; type: ADME, cell-based
HT-29 [11] = assay: Drug metabolism in human HT-29 cells assessed as [125I]-I formation at 18.5 kBq after 60 mins by reversed phase TLC analysis; type: ADME, cell-based; settings: ht-29, 1 h
HT-29 [12] = assay: Drug metabolism in human HT-29 cells assessed as m-[125I]-iodophenol formation at 18.5 kBq after 60 mins by reversed phase TLC analysis; type: ADME, cell-based; settings: ht-29, 1 h
[13] = target: NAD(P)H dehydrogenase [quinone] 1 (printed NOQ-1) (Homo sapiens, UniProt P15559); assay: Activity of NOQ-1 expressed in human HT-29 cell lysate assessed as compound remaining at 185 KBq after 2 hrs by reversed phase TLC analysis; type: ADME, cell-free; settings: read-out: Stability
HT-29 [14] = assay: Cellular uptake in human HT-29 cells at 18.5 kBq up to 5 mins by gamma-counting analysis; type: ADME, cell-based; settings: ht-29, 5 min
A549 [15] = assay: Cellular uptake in human A549 cells at 18.5 kBq after 30 mins by gamma-counting analysis in presence of 3-([{4-Iodophenyl}thio]methyl)-5-methoxy-1,2-dimethyl-1H-indole-4,7-dione; type: ADME, cell-based; settings: a549, 0.5 h
[16] = Ratio of cellular uptake in human A549 cells to cellular uptake in human HT-29 cells; type: ADME, cell-based
HT-29 [17] = assay: Cellular uptake in human HT-29 cells at 18.5 kBq after 30 mins by gamma-counting analysis in presence of 3-([{4-Iodophenyl}thio]methyl)-5-methoxy-1,2-dimethyl-1H-indole-4,7-dione; type: ADME, cell-based; settings: ht-29, 0.5 h
A549 [18] = assay: Cellular uptake in human A549 cells at 18.5 kBq by gamma-counting analysis; type: ADME, cell-based
[19] = Drug metabolism in human A549 cells assessed as compound remaining at 18.5 kBq after 60 mins by reversed phase TLC analysis; type: ADME, cell-based; settings: read-out: Stability
HT-29 [20] = assay: Drug level in human HT-29 cells treated with 18.5 kBq [125I]-3-([3-Iodophenoxy]methyl)-5-methoxy-1,2-dimethyl-1Hindole-4,7-dione after 60 mins by reversed phase TLC analysis; type: ADME, cell-based; settings: ht-29, 1 h
HT-29 [21] = assay: Drug level in human HT-29 cells treated with 18.5 kBq [125I]-3-([4-Iodophenoxy]methyl)-5-methoxy-1,2-dimethyl-1Hindole-4,7-dione after 60 mins by reversed phase TLC analysis; type: ADME, cell-based; settings: ht-29, 1 h
A549 [22] = assay: Drug level in human A549 cells treated with 18.5 kBq [125I]-3-([4-Iodophenoxy]methyl)-5-methoxy-1,2-dimethyl-1Hindole-4,7-dione after 60 mins by reversed phase TLC analysis; type: ADME, cell-based; settings: a549, 1 h

Sequence of NAD(P)H dehydrogenase [quinone] 1 (printed NOQ-1) (P15559 whole entry): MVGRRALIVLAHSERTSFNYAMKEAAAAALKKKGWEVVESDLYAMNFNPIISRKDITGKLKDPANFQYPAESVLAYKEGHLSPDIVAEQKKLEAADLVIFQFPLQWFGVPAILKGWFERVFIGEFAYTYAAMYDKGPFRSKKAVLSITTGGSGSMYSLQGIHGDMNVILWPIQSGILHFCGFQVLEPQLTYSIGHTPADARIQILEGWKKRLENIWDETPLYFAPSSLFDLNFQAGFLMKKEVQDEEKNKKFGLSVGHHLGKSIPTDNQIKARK
Sequence of NAD(P)H dehydrogenase [quinone] 1 (P15559 whole entry): as above

In the case of `COC1=CC(=O)c2c(c(COc3ccc([125I])cc3)c(C)n2C)C1=O`, the Stability [1] is reported as “Stable”, the Drug metabolism (A549 [2]) is reported as “metabolite_detected” and the Drug metabolism [3] is reported as “metabolite_detected”. For the same compound, the remaining at 24 h, 74 KBq [4] was greater than 90%, the remaining at 1 h, 18.5 kBq [5] was less than 10% and the remaining at 24 h, 74 KBq [6] was 80%. The Drug metabolism (A549 [7]) was “metabolite_detected”, the Drug uptake (HT-29 [8]) was “Active” and the Drug metabolism (HT-29 [9]) was “metabolite_detected”. For the same compound, the Drug uptake (A549 [10]) was “Active”, the Drug metabolism (HT-29 [11]) was “metabolite_detected” and the Drug metabolism (HT-29 [12]) was “metabolite_detected”. The remaining at 2 h, 185 KBq [13] was less than 25% and the Drug uptake (HT-29 [14]) was “Active”.
With `COC1=CC(=O)c2c(c(CSc3ccc([125I])cc3)c(C)n2C)C1=O` the Stability [1] was “Stable”, the Drug uptake (A549 [15]) was “Not Active” and the remaining at 24 h, 74 KBq [4] was greater than 90%. For the same compound, the remaining at 24 h, 74 KBq [6] was greater than 97%, the Ratio [16] was 4 and the Drug uptake (HT-29 [17]) was “Not Active”. For the same compound, the Drug uptake (HT-29 [8]) was “Active”, the Drug uptake (A549 [18]) was “Dose-dependent effect” and the remaining at 1 h, 18.5 kBq [19] was greater than 85%. For the same compound, the remaining at 2 h, 185 KBq [13] was 92%.
In the case of `COC1=CC(=O)c2c(c(COc3cccc([125I])c3)c(C)n2C)C1=O`, the Stability [1] is reported as “Stable”, the remaining at 24 h, 74 KBq [4] is reported as greater than 90% and the remaining at 1 h, 18.5 kBq [5] is reported as less than 10%. The remaining at 24 h, 74 KBq [6] was 80%, the Drug uptake (HT-29 [8]) was “Active” and the Drug metabolism (HT-29 [9]) was “metabolite_detected”. The Drug metabolism (HT-29 [11]) was “metabolite_detected”, the Drug metabolism (HT-29 [12]) was “metabolite_detected” and the Drug uptake (HT-29 [14]) was “Active”.
For `Oc1cccc([125I])c1`, the Drug uptake (HT-29 [20]) was “Active” and the Drug uptake (HT-29 [21]) was “Active”.
For `Oc1ccc([125I])cc1`, the Drug uptake (HT-29 [20]) was “Active”, the Drug uptake (A549 [22]) was “Active” and the Drug uptake (HT-29 [21]) was “Active”.
For `[125IH]`, the Drug uptake (HT-29 [20]) was “Active”, the Drug uptake (A549 [22]) was “Active” and the Drug uptake (HT-29 [21]) was “Active”.
